Results as given in patent publication US20200071327A1, “Prodrugs for the Treatment of Disease” (Oppilan Pharma Ltd., priority 2017, published 2020).

Biological target: T1, full-length human S1P1 (Homo sapiens, UniProt P21453)
T1 construct: CHO-K1 Gαqi5 cells expression full-length human S1P1; expressed in transfected cells; host or cells: CHO-K1 Gαqi5 cells (membrane preparation)
Test: GTPγS binding assay (scintillation proximity assay) on S1P1 membranes
Format: biochemical
Conditions: membranes from CHO-K1 Gαqi5 cells expressing full-length human S1P1; GTPγ35S; 60 minutes incubation
Method: S1P1 membrane is prepared from CHO-K1 Gαqi5 cells expression full-length human S1P1. Scintillation proximity assay (SPA) is performed by incubating membranes, GTPγ^35S, and compound 11 at various concentrations for 60 minutes. Wheat germ agglutinin-coated SPA beads are added and incubated for 60 minutes before centrifugation and scintillation counting.

T1 sequence (P21453 whole entry): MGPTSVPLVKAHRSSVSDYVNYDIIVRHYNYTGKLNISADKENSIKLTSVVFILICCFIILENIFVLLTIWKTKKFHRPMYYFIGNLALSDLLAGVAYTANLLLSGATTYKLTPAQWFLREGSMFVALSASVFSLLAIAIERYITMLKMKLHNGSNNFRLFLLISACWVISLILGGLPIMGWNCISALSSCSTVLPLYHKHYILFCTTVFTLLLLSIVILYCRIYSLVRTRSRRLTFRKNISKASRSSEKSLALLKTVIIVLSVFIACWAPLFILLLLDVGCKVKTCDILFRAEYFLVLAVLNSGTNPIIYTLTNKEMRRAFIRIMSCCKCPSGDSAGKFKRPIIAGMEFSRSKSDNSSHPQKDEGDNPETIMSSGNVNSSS

O=C1CC[C@@H](Oc2cc(Cl)c(-c3noc(-c4cn5cc(C(F)(F)F)cc(Cl)c5n4)n3)cc2Cl)CN1 [compound 11, (R)-5-(2,5-diehloro-4-(5-(8-chloro-6-(trifluoromethyl)imidazo[1,2-a]pyridin-2-yl)-1,2,4-oxadiazol-3-yl)phenoxy)piperidin-2-one]
EC50: < 1000 nM
